Experimental data reported in paper PMC4677984, “Activation of Muscarinic M1 Acetylcholine Receptors Induces Long-Term Potentiation in the Hippocampus” (Cerebral Cortex (New York, NY), 2015).

Columns and labels:
mouse native M1Rs = mouse native M1Rs (Mus musculus, UniProt P12657); assay: biochemical
Method: (§1) All procedures were performed at 4°C. […] Homogenate was centrifuged at 1000×g for 10 min and supernatant collected, the pellet was rehomogenized and centrifuged again, as above, and supernatant pooled and centrifuged at 11 000×g for 20 min. The resulting pellet was suspended in a final storage buffer (10 mM HEPES, 1 mM EGTA, 1 mM MgCl2, 1 mM DTT; pH 7.4) and centrifuged at 27 000×g for 20 min. Supernatant was removed and the final pellet suspended in 2 mL of final storage buffer. Protein concentration was measured using the Bradford method ([Bradford 1976]) (Coomassie Plus, Bio-Rad protein assay kit) with bovine gamma globulin standards. Samples were then aliquoted and stored at −80°C.
(§2) GTPɣ[^35S] binding in mouse WT and M1 KO hippocampal membranes were determined in triplicate using an antibody capture technique in 96-well plate format ([DeLapp et al. 1999]). Membrane aliquots (15 µg/well) from WT or M1 KO C57BL6/NTac mice were incubated with test compound and GTPɣ[^35S] (500 pM/well) for 30 min. […] Plates were left to incubate for 3 h and then centrifuged for 10 min at 2000 rpm. Plates were counted for 1 min/well using a Wallac MicroBeta Trilux scintillation counter (PerkinElmer). All incubations took place at room temperature in GTP-binding assay buffer (In mM, 20 HEPES, 100 NaCl, 5 MgCl2; pH 7.4).
(§3) For data analysis, relative EC50 and IC50 values were calculated using a 4-parameter logistic curve (GraphPad Prism v6).

[1] = tested on: Gαq activation in M1 KO hippocampal membranes
Method: as §1
as §2, with “All incubations took place at room temperature in GTP-binding assay buffer (In mM, 20 HEPES, 100 NaCl, 5 MgCl2; pH 7.4).” left out
as §3

[2] = tested on: CA1 pyramidal cell firing; settings: studies not reported here; reversed by scopolamine
cognition = settings: clinical study; ref Nathan et al. 2013; cited from earlier work
human M2 receptors [3] = target: T1, human M2 receptors (Homo sapiens, UniProt P08172); settings: over the concentration range tested
T1 sequence (P08172 whole entry): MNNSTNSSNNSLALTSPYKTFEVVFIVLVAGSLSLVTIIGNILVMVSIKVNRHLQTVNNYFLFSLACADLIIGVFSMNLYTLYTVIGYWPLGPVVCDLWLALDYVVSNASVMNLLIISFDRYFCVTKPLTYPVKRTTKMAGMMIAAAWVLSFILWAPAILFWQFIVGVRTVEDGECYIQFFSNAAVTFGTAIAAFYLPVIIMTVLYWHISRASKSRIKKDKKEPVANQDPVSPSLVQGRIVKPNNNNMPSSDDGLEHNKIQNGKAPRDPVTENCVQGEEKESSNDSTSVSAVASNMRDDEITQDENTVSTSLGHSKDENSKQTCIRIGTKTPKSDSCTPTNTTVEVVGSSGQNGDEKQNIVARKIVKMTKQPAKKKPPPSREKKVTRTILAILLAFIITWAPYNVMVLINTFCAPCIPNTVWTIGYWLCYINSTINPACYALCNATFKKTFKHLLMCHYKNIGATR
Method: (§4) CHO cells stably expressing recombinant human M1, M3, and M5 Rs and AV12 cells stably expressing Gα15 and recombinant human M2 or M4 Rs were cultured in DMEM with high glucose and pyridoxine hydrochloride supplemented with 5–10% heat-inactivated fetal bovine serum, 10–20 mM HEPES, 1 mM L-glutamine, 1% penicillin/streptomycin solution and selection agents, 0.5 mg/mL geneticin, or 0.3 µg/mL puromycin. Confluent cultures were passaged weekly and cells harvested 24 h prior to assay using 0.25% trypsin–EDTA and plated at a density of 40 000–50 000 cells per well in tissue culture treated, poly-D-lysine-coated 96-well black-walled, clear bottom plates (Corning or Becton-Dickinson). For FLIPR (FLIPR-tetra, Molecular Devices) assays, media was removed and cells were incubated with 5 µM Fluo-4-AM/0.05% pluronic F-127 (Invitrogen) in a HEPES-buffered salt solution (HEPES-HBSS; composition, in mM; 135 NaCl, 5 KCl, 1.3 CaCl2, 0.5 MgCl2, 0.4 MgSO4, 0.4 KH2PO4, 4.2 NaHCO3, 0.3 Na2HPO4, 5.6 glucose, 20 HEPES, +2.5 mM probenecid for CHO cell lines, pH 7.5 adjusted with 5 M NaOH) for 1 h at room temperature, in the dark, before the media was removed and replaced with HEPES-buffered salt solution in the absence of Fluo-4. Probenecid was included to optimize dye loading in CHO cell lines. Although probenecid has been reported to interact and activate some TRP channels {McClenaghan, 2012 #2996}, there are no reports of interactions with mAChRs or nontransfected CHO cells. Plates were then transferred to FLIPR for experiments, which were also conducted at room temperature.
as §3

human M3 receptors = human M3 receptors (Homo sapiens, UniProt P20309); settings: over the concentration range tested
Chain of human M3 receptors (P20309 whole entry): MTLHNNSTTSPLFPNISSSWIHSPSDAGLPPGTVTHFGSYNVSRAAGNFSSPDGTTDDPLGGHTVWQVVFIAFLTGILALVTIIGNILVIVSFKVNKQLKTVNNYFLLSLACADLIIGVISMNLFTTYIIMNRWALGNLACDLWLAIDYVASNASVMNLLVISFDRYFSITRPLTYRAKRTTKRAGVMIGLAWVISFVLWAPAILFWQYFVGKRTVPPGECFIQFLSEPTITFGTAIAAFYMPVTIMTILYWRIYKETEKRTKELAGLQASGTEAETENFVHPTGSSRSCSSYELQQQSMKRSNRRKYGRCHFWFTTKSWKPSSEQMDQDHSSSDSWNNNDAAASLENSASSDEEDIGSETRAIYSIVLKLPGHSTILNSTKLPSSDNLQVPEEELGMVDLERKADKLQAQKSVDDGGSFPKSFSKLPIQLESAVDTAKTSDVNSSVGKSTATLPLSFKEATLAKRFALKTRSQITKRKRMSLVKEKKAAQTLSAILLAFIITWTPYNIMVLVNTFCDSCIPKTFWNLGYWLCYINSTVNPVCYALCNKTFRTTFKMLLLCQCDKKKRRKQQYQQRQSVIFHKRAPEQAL
Method: as §4, §3

human M4 receptors [4] = target: T2, human M4 receptors (Homo sapiens, UniProt P08173); settings: over the concentration range tested
T2 sequence (P08173 whole entry): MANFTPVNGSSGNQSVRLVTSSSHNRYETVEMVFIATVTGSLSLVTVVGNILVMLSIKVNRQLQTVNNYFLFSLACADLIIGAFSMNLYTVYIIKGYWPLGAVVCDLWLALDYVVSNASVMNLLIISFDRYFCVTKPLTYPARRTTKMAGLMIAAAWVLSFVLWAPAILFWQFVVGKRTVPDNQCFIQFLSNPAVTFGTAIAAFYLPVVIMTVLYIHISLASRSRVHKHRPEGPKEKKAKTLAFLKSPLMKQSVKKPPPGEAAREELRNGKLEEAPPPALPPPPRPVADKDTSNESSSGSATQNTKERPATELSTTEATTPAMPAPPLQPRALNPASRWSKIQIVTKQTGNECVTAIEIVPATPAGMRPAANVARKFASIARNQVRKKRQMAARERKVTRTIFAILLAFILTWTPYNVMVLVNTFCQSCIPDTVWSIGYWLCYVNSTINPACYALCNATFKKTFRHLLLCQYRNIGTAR
Method: as §4, §3

human M5 receptors [5] = target: T3, human M5 receptors (Homo sapiens, UniProt P08912); settings: over the concentration range tested
T3 sequence (P08912 whole entry): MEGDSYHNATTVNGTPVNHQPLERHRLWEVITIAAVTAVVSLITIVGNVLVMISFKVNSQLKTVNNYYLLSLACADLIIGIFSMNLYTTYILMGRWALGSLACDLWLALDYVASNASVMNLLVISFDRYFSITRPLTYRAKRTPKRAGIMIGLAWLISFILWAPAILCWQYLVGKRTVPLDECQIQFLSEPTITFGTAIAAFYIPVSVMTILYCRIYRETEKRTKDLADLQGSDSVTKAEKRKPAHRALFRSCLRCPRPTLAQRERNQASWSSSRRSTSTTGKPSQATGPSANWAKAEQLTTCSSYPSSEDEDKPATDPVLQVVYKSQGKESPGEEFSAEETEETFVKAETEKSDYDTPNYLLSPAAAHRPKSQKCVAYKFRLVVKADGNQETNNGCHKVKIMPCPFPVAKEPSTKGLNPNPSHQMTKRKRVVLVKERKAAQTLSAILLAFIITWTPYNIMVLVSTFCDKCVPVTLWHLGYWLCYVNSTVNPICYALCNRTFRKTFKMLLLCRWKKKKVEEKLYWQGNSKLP
Method: as §4, §3

human M2 receptors [6] = target: T1, human M2 receptors; assay: cell-based
Method: as §4, §3

human M4 receptors [7] = target: T2, human M4 receptors; assay: cell-based
Method: as §4, §3

human M5 receptors [8] = target: T3, human M5 receptors; assay: cell-based
Method: as §4, §3

CA1 pyramidal neurons [9] = settings: 7 µM, WT mice 6-9 weeks
CA1 pyramidal neurons [10] = tested on: CA1 pyramidal neurons
[11] = tested on: CA1 pyramidal neurons (M1R KO); settings: 7 µM, M1R KO mice
CA1 pyramidal neurons [12] = settings: 7 µM, WT mice, NBQX + L-689,560, -55 mV
[13] = tested on: CA1 pyramidal neurons (M1R KO); settings: 7 µM, M1R KO mice; remark: listed apart in the source
human M1Rs = human M1Rs (Homo sapiens, UniProt P11229); assay: cell-based
Chain of human M1Rs (P11229 whole entry): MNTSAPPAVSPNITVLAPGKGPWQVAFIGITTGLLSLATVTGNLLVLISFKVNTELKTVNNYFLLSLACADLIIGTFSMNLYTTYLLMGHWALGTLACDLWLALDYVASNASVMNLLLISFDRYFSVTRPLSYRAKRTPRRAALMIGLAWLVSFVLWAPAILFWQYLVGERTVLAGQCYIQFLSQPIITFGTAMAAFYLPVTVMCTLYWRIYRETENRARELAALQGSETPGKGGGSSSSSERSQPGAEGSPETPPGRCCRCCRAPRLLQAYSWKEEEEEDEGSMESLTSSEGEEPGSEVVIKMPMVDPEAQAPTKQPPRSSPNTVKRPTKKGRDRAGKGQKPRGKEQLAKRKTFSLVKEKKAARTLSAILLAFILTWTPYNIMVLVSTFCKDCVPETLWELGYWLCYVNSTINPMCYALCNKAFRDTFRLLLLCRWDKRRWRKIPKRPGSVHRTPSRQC
Method: CHO cells stably expressing recombinant human M1, M3, and M5 Rs and AV12 cells stably expressing Gα15 and recombinant human M2 or M4 Rs were cultured in DMEM with high glucose and pyridoxine hydrochloride supplemented with 5–10% heat-inactivated fetal bovine serum, 10–20 mM HEPES, 1 mM L-glutamine, 1% penicillin/streptomycin solution and selection agents, 0.5 mg/mL geneticin, or 0.3 µg/mL puromycin. Confluent cultures were passaged weekly and cells harvested 24 h prior to assay using 0.25% trypsin–EDTA and plated at a density of 40 000–50 000 cells per well in tissue culture treated, poly-D-lysine-coated 96-well black-walled, clear bottom plates (Corning or Becton-Dickinson). For FLIPR (FLIPR-tetra, Molecular Devices) assays, media was removed and cells were incubated with 5 µM Fluo-4-AM/0.05% pluronic F-127 (Invitrogen) in a HEPES-buffered salt solution (HEPES-HBSS; composition, in mM; 135 NaCl, 5 KCl, 1.3 CaCl2, 0.5 MgCl2, 0.4 MgSO4, 0.4 KH2PO4, 4.2 NaHCO3, 0.3 Na2HPO4, 5.6 glucose, 20 HEPES, +2.5 mM probenecid for CHO cell lines, pH 7.5 adjusted with 5 M NaOH) for 1 h at room temperature, in the dark, before the media was removed and replaced with HEPES-buffered salt solution in the absence of Fluo-4. […]

dopamine D2 receptors = settings: ref Melancon et al. 2013; cited from earlier work
5-HT2B receptors = settings: ref Melancon et al. 2013; cited from earlier work

Chain of mouse native M1Rs (P12657 whole entry): as the sequence (P11229 whole entry) above, with A5V, T254S, R320K, A337G, I413V counted along it

In the case of oxotremorine M, the “Emax for Gαq activation” value (mouse native M1Rs; WT hippocampus, percentage of maximal signal with 100 µM oxo-M) is reported as 99 ± 5% and the “Gαq activation response in M1R KO mice” value [1] is reported as “No response”.
In the case of `Cc1cc(F)c2[nH]c(=O)n(C3CCN(C4CCOCC4)CC3)c2c1` [GSK1034702], the “CA1 pyramidal cell firing in vivo” value [2] is given as “increase in CA1 pyramidal cell firing” and the effects on cognition (cognition) is given as “positive effects on cognition”.
For `CCCCC1CCN(CCCN2C(=O)CCc3ccccc32)CC1` [77-LH-28-1, 1-[3-(4-butyl-1-piperidinyl)propyl]-3,4-dihydro-2[1H]-quinolinone], the “agonism of M2 receptors” value (human M2 receptors [3]) was “No agonism”, the “agonism of M3 receptors” value (human M3 receptors) was “No agonism” and the “agonism of M4 receptors” value (human M4 receptors [4]) was “No agonism”. For the same molecule, the “agonism of M5 receptors” value (human M5 receptors [5]) was “No agonism”, the IC50 (human M2 receptors [6]) was 1190 nM and the IC50 (human M4 receptors [7]) was 2030 nM. The IC50 (human M5 receptors [8]) was 2220 nM, the EC50 (mouse native M1Rs) was 156 nM and the Emax (mouse native M1Rs; read-out: Emax for Gαq activation) was 92 ± 2%. For the same molecule, the “Gαq activation response in M1R KO mice” value [1] was “no response”, the “depolarization of CA1 pyramidal neurons” value (CA1 pyramidal neurons [9]) was 10.4 ± 3.9 mV and the “increase in input resistance” value (CA1 pyramidal neurons [9]) was 86 ± 51 MΩ. The EPSP amplitude (CA1 pyramidal neurons [10]) was 194.2 ± 42.0%, the EPSP amplitude [11] was 118.5 ± 24.7% and the IPSP amplitude (CA1 pyramidal neurons [12]) was 39.1 ± 9.2%. The IPSP amplitude [13] was 64.0 ± 13.3%, the EC50 (human M1Rs) was 22.2 nM and the Emax (human M1Rs; read-out: efficacy (Emax)) was 98 ± 2%. The “cross-reactivity at dopamine D2 receptors” value (dopamine D2 receptors) was “some cross-reactivity” and the “cross-reactivity at 5-HT2B receptors” value (5-HT2B receptors) was “some cross-reactivity”.
